Data taken from patent US20100041089A1, “IMPROVED METHOD FOR DETECTING CHEMICAL […]” (priority 2006, published 2010).

Test system: yeast genes (expressed mRNA)
Assay: DNA chip measurement of expressed mRNA of yeast genes after culture with a toxic chemical substance
Assay type: cell-based, Saccharomyces cerevisiae S288C
How it was run: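 Two-hour exposure of growing S. cerevisiae S288C (YPD, 25° C) to a sublethal toxicant preceded RNA isolation. Fluorescent cDNA was hybridized to a whole-genome array; a treated-to-untreated signal ratio of two or more was taken as significant.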

COc1cc(CNC(=O)CCCCC=CC(C)C)ccc1O [(12), 8-Methyl-N-vanillyl-6-nonenamide]
The level of expressed mRNA in the presence of chemical substance/The level of expressed mRNA in the absence of chemical substance (yeast gene YAL012W, metabolism protein genes): 1.1 | The level of expressed mRNA in the presence of chemical substance/The level of expressed mRNA in the absence of chemical substance (yeast gene YAL034C, cultured two hours with substance): 2.8 | The level of expressed mRNA in the presence of chemical substance/The level of expressed mRNA in the absence of chemical substance (yeast gene YAL053W, cultured two hours with substance): 0.6 | The level of expressed mRNA in the presence of chemical substance/The level of expressed mRNA in the absence of chemical substance (yeast gene YAL054C): 1.0 | The level of expressed mRNA in the presence of chemical substance/The level of expressed mRNA in the absence of chemical substance (yeast gene YAR028W, cultured two hours with substance): 0.8 | The level of expressed mRNA in the presence of chemical substance/The level of expressed mRNA in the absence of chemical substance (yeast gene YBL001C): 0.7 | The level of expressed mRNA in the presence of chemical substance/The level of expressed mRNA in the absence of chemical substance (yeast gene YBL048W, cultured two hours with substance): 1.2 | The level of expressed mRNA in the presence of chemical substance/The level of expressed mRNA in the absence of chemical substance (yeast gene YBL107C, cultured two hours with substance): 1.4 | The level of expressed mRNA in the presence of chemical substance/The level of expressed mRNA in the absence of chemical substance (yeast gene YBR072W (stress protein genes)): 16.3 | The level of expressed mRNA in the presence of chemical substance/The level of expressed mRNA in the absence of chemical substance (yeast gene YBR203W, cultured two hours with substance): 1.6 | The level of expressed mRNA in the presence of chemical substance/The level of expressed mRNA in the absence of chemical substance (yeast gene YBR222C): 0.9 | The level of expressed mRNA in the presence of chemical substance/The level of expressed mRNA in the absence of chemical substance (yeast gene YBR256C): 1.7 | The level of expressed mRNA in the presence of chemical substance/The level of expressed mRNA in the absence of chemical substance (yeast gene YBR273C, cultured two hours with substance): 0.8 | The level of expressed mRNA in the presence of chemical substance/The level of expressed mRNA in the absence of chemical substance (yeast gene YCL009C): 1.7 | The level of expressed mRNA in the presence of chemical substance/The level of expressed mRNA in the absence of chemical substance (yeast gene YCR037C): 0.7 | The level of expressed mRNA in the presence of chemical substance/The level of expressed mRNA in the absence of chemical substance (yeast gene YCR048W): 0.9 | The level of expressed mRNA in the presence of chemical substance/The level of expressed mRNA in the absence of chemical substance (yeast gene YDL072C, cultured two hours with substance): 1.2 | The level of expressed mRNA in the presence of chemical substance/The level of expressed mRNA in the absence of chemical substance (yeast gene YDL110C, cultured two hours with substance): 1.5 | The level of expressed mRNA in the presence of chemical substance/The level of expressed mRNA in the absence of chemical substance (yeast gene YDL174C, cultured for two hours with substance): 2.8 | The level of expressed mRNA in the presence of chemical substance/The level of expressed mRNA in the absence of chemical substance (yeast gene YDL204W, cultured two hours with substance): 0.9 | The level of expressed mRNA in the presence of chemical substance/The level of expressed mRNA in the absence of chemical substance (yeast gene YDL222C, cultured two hours with substance): 1.0 | The level of expressed mRNA in the presence of chemical substance/The level of expressed mRNA in the absence of chemical substance (yeast gene YDR003W, cultured two hours with substance): 0.8 | The level of expressed mRNA in the presence of chemical substance/The level of expressed mRNA in the absence of chemical substance (yeast gene YDR009W): 1.0 | The level of expressed mRNA in the presence of chemical substance/The level of expressed mRNA in the absence of chemical substance (yeast gene YDR019C): 0.7 | The level of expressed mRNA in the presence of chemical substance/The level of expressed mRNA in the absence of chemical substance (yeast gene YDR031W, cultured two hours with substance): 0.9 | The level of expressed mRNA in the presence of chemical substance/The level of expressed mRNA in the absence of chemical substance (yeast gene YDR070C, cultured two hours with substance): 4.3 | The level of expressed mRNA in the presence of chemical substance/The level of expressed mRNA in the absence of chemical substance (yeast gene YDR330W, cultured two hours with substance): 1.0 | The level of expressed mRNA in the presence of chemical substance/The level of expressed mRNA in the absence of chemical substance (yeast gene YDR391C, cultured two hours with substance): 1.4 | The level of expressed mRNA in the presence of chemical substance/The level of expressed mRNA in the absence of chemical substance (yeast gene YDR406W (transport facilitation protein gene)): 3.9 | The level of expressed mRNA in the presence of chemical substance/The level of expressed mRNA in the absence of chemical substance (yeast gene YDR410C): 0.9 | The level of expressed mRNA in the presence of chemical substance/The level of expressed mRNA in the absence of chemical substance (yeast gene YDR411C, cultured two hours with substance): 1.5 | The level of expressed mRNA in the presence of chemical substance/The level of expressed mRNA in the absence of chemical substance (yeast gene YDR476C, cultured two hours with substance): 2.1 | The level of expressed mRNA in the presence of chemical substance/The level of expressed mRNA in the absence of chemical substance (yeast gene YDR486C, cultured two hours with substance): 1.3 | The level of expressed mRNA in the presence of chemical substance/The level of expressed mRNA in the absence of chemical substance (yeast gene YDR497C, metabolism protein genes): 0.9 | The level of expressed mRNA in the presence of chemical substance/The level of expressed mRNA in the absence of chemical substance (yeast gene YDR511W, cultured two hours with substance): 0.8 | The level of expressed mRNA in the presence of chemical substance/The level of expressed mRNA in the absence of chemical substance (yeast gene YDR534C, cultured two hours with substance): 1.5 | The level of expressed mRNA in the presence of chemical substance/The level of expressed mRNA in the absence of chemical substance (yeast gene YDR545W, cultured two hours with substance): 0.9 | The level of expressed mRNA in the presence of chemical substance/The level of expressed mRNA in the absence of chemical substance (yeast gene YEL001C, cultured two hours with substance): 1.1 | The level of expressed mRNA in the presence of chemical substance/The level of expressed mRNA in the absence of chemical substance (yeast gene YER004W, cultured two hours with substance): 1.7 | The level of expressed mRNA in the presence of chemical substance/The level of expressed mRNA in the absence of chemical substance (yeast gene YER026C): 1.7 | The level of expressed mRNA in the presence of chemical substance/The level of expressed mRNA in the absence of chemical substance (yeast gene YER035W, cultured two hours with substance): 1.1 | The level of expressed mRNA in the presence of chemical substance/The level of expressed mRNA in the absence of chemical substance (yeast gene YER038C, cultured two hours with substance): 0.9 | The level of expressed mRNA in the presence of chemical substance/The level of expressed mRNA in the absence of chemical substance (yeast gene YER079W, cultured two hours with substance): 0.9 | The level of expressed mRNA in the presence of chemical substance/The level of expressed mRNA in the absence of chemical substance (yeast gene YER096W, metabolism protein genes): 0.9 | The level of expressed mRNA in the presence of chemical substance/The level of expressed mRNA in the absence of chemical substance (yeast gene YER106W, cultured two hours with substance): 0.9 | The level of expressed mRNA in the presence of chemical substance/The level of expressed mRNA in the absence of chemical substance (yeast gene YER158C, cultured two hours with substance): 1.0 | The level of expressed mRNA in the presence of chemical substance/The level of expressed mRNA in the absence of chemical substance (yeast gene YER163C, cultured two hours with substance): 1.0 | The level of expressed mRNA in the presence of chemical substance/The level of expressed mRNA in the absence of chemical substance (yeast gene YER175C, cultured two hours with substance): 0.9 | The level of expressed mRNA in the presence of chemical substance/The level of expressed mRNA in the absence of chemical substance (yeast gene YFL006W, cultured two hours with substance): 1.2 | The level of expressed mRNA in the presence of chemical substance/The level of expressed mRNA in the absence of chemical substance (yeast gene YFL010C, cultured two hours with substance): 1.5
